Patent US6960597B2, “Aza-bridged-bicyclic amino acid derivatives as α4 integrin antagonists” (Orth-McNeil Pharmaceutical, Inc., priority 2000, dated 2005)
Like-named read-outs stand apart in the source and are kept apart here.

How the values were obtained:
[1] = biological target: T1, α4β1 integrin receptor (Homo sapiens, UniProt P05556+P13612); test: Ramos Cell Adhesion Assay (α4β1 Mediated Adhesion/VCAM-1); type: cell-based
T1 construct: Ramos Cell Adhesion Assay (α4β1 Mediated Adhesion/VCAM-1); endogenous in cells; host or cells: Ramos cells
T1 sequence (P05556 21-798, one chain of several): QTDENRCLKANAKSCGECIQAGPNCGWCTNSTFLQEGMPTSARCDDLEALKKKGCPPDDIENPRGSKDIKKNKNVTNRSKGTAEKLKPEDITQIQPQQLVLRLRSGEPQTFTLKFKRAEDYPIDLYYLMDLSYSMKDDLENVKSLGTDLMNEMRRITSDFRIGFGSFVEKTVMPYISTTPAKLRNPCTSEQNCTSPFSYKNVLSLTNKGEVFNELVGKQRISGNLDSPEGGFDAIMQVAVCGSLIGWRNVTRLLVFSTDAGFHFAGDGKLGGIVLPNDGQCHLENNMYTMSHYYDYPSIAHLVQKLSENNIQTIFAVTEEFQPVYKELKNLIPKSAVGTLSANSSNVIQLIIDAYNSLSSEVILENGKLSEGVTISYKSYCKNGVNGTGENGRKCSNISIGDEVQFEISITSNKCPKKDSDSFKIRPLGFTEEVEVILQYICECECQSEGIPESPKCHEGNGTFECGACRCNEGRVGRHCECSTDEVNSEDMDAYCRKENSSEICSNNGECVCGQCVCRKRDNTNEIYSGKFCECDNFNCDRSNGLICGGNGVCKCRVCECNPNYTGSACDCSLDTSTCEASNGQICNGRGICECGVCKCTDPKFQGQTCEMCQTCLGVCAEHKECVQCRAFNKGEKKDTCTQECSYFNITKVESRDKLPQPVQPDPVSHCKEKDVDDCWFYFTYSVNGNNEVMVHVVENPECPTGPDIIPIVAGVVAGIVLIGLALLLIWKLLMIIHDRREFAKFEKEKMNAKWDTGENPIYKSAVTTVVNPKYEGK
Description: Ramos Cell Adhesion Assay (α4β1 Mediated Adhesion/VCAM-1)
(§1) Immulon 96 well plates (Dynex) were coated with 100 μL recombinant hVCAM-1 at 4.0 μg/mL in 0.05 M NaCO3 buffer pH 9.0 overnight at 4° C. (R&D Systems). Plates were washed 3 times in PBS with 1% BSA and blocked for 1 h @ room temperature in this buffer. PBS was removed and compounds to be tested (50 μL) were added at 2× concentration. Ramos cells, (50 μL at 2×10^6/mL) labeled with 5 μM Calcein AM (Molecular Probes) for 1 h at 37° C., were added to each well and allowed to adhere for 1 h at room temperature. Plates were washed 3× in PBS+1% BSA and cells were lysed for 15 minutes in 100 μL of 1 M Tris pH 8.0 with 1% SDS. The plate was read at 485 nm excitation and 530 nm emission.

[2] = biological target: T2, human α4β7 (Homo sapiens, UniProt P13612+P26010); test: α4β7-K562 Cell Adhesion Assay (α4β7 Mediated Adhesion/VCAM-1); type: cell-based
T2 construct: expressed in transfected cells
T2 sequence (P13612 34-1032): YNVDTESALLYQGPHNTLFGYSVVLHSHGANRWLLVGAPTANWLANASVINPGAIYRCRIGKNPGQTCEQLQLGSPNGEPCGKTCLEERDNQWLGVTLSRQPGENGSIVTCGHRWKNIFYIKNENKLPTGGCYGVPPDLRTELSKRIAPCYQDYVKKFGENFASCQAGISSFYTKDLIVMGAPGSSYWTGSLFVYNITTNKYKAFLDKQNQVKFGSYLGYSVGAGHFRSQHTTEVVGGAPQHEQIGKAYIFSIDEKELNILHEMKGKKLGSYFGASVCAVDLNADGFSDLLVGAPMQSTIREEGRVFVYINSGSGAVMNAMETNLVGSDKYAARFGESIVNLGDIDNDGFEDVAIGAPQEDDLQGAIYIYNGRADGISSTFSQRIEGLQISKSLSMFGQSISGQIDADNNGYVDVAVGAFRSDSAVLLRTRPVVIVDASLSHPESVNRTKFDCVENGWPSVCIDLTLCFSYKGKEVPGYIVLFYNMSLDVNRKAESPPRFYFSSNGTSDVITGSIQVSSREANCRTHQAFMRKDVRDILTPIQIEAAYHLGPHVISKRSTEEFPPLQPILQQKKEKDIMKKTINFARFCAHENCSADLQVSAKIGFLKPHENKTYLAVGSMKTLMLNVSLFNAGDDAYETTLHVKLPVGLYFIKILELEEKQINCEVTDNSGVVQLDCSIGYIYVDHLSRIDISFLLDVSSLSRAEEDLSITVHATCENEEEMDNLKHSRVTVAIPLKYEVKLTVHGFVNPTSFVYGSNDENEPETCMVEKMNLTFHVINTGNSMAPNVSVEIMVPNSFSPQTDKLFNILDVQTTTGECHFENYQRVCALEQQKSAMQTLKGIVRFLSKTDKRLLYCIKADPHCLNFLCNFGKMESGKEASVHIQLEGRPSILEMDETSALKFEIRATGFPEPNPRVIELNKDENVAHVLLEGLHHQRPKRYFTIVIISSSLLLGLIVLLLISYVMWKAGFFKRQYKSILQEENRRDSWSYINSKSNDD
T2 sequence (P26010 20-798): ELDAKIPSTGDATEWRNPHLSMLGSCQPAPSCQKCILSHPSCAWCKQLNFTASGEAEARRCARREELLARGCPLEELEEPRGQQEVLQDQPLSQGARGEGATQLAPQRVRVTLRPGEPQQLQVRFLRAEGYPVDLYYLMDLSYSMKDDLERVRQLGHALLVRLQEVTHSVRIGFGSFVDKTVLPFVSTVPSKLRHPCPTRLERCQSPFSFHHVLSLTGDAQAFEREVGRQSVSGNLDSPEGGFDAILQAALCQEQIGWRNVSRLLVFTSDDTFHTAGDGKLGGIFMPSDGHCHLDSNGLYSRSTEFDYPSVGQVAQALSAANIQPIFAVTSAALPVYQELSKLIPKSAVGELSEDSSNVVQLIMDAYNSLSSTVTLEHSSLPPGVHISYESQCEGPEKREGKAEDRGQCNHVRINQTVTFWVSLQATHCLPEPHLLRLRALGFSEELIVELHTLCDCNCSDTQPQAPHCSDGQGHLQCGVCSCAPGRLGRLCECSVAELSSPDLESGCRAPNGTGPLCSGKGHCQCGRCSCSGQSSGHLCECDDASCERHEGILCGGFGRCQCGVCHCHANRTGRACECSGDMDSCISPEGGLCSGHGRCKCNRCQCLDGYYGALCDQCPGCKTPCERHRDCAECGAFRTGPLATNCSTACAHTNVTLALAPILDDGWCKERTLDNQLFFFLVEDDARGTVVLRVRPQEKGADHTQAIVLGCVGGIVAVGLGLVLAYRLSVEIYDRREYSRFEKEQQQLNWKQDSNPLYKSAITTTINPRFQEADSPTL
Description: α4β7-K562 Cell Adhesion Assay (α4β7 Mediated Adhesion/VCAM-1)
as §1, with “A stable cell line of K562 cells expressing human α4β7,” for “Ramos cells,”

[3] = Table I, racemic mixtures and resolved (S,S) and (R,S) diastereomers, read-out: Antagonist IC50 Activity α4β1
[4] = Table III, read-out: Inhibition of Binding of Ramos Cells to Immobilized VCAM-1 IC50
[5] = Table I, racemic mixtures and resolved (S,S) and (R,S) diastereomers, read-out: Antagonist IC50 Activity α4β7
[6] = Table III, μM, read-out: Inhibition of Binding of Ramos Cells to Immobilized VCAM-1 IC50
[7] = Table IV, μM, read-out: Inhibition of Binding of K562 Cells to Immobilized VCAM-1 IC50
[8] = Table IV, read-out: Inhibition of Binding of K562 Cells to Immobilized VCAM-1 IC50

| Compound | IC50 [1, 3] | IC50 [1, 4] | IC50 [2, 5] | IC50 [1, 6] | IC50 [2, 7] | IC50 [2, 8] |
| --- | --- | --- | --- | --- | --- | --- |
| O=C(Nc1ccc(C[C@H](NC(=O)[C@H]2C3CCC(CC3)N2S(=O)(=O)c2ccccc2)C(=O)O)cc1)c1c(Cl)cccc1Cl [Cpd 6b, 4-[(2,6-dichlorobenzoyl)amino]-N-[[(3R)-2-(phenylsulfonyl)-2-azabicyclo[2.2.2]oct-3-yl]carbonyl]-L-phenylalanine] | 0.222 µM | 0.222 µM | 0.421 µM |  |  |  |
| CC(C)(C)OC(=O)N1CCC(C(=O)Nc2ccc(C[C@H](NC(=O)C3C4CCC(CC4)N3S(=O)(=O)c3ccccc3)C(=O)O)cc2)CC1 (mixture of isomers) [Cpd 53, 4-[[[1-[(1,1-dimethylethoxy)carbonyl]-4-piperidinyl]carbonyl]amino]-N-[[2-(phenylsulfonyl)-2-azabicyclo[2.2.2]oct-3-yl]carbonyl]-L-phenylalanine] | 0.179 µM | 0.067 µM | 0.871 µM |  |  |  |
| COc1cccc(OC)c1C(=O)Nc1ccc(C[C@H](NC(=O)[C@@H]2C3CCC(C3)N2S(=O)(=O)c2ccccc2)C(=O)O)cc1 (stereo partly drawn) [Cpd 19a, 4-[(2,6-dimethoxybenzoyl)amino]-N-[[(3S)-2-(phenylsulfonyl)-2-azabicyclo[2.2.1]hept-3-yl]carbonyl]-L-phenylalanine] | 0.3 µM | 0.3 µM | 3.82 µM |  |  |  |
| COc1cccc(OC)c1C(=O)Nc1ccc(C[C@H](NC(=O)[C@H]2C3CCC(C3)N2S(=O)(=O)c2ccccc2)C(=O)O)cc1 (stereo partly drawn) [Cpd 19b, 4-[(2,6-dimethoxybenzoyl)amino]-N-[[(3R)-2-(phenylsulfonyl)-2-azabicyclo[2.2.1]hept-3-yl]carbonyl]-L-phenylalanine] | 1.21 µM | 1.21 µM | 3.22 µM |  |  |  |
| COc1cccc(OC)c1-c1ccc(C[C@H](NC(=O)[C@H]2C3CCC(CC3)N2S(=O)(=O)c2ccc(C)cc2)C(=O)O)cc1 [Cpd 18a, 4-(2,6-dimethoxyphenyl)-N-[[(3R)-2-[(4-methylphenyl)sulfonyl]-2-azabicyclo[2.2.2]oct-3-yl]carbonyl]-L-phenylalanine] | 0.857 µM | 0.857 µM | 9 µM |  |  |  |
| O=C(Nc1ccc(C[C@H](NC(=O)[C@@H]2C3CCC(C3)N2S(=O)(=O)c2ccccc2)C(=O)O)cc1)c1c(F)cccc1F (stereo partly drawn) [Cpd 5a, 4-[(2,6-difluorobenzoyl)amino]-N-[[(3S)-2-(phenylsulfonyl)-2-azabicyclo[2.2.1]hept-3-yl]carbonyl]-L-phenylalanine] | 0.081 µM | 0.081 µM | 0.062 µM |  |  |  |
| O=C(O)[C@H](Cc1ccc(OCc2c(Cl)cccc2Cl)cc1)NC(=O)[C@H]1C2CCC(CC2)N1S(=O)(=O)c1ccccc1 [Cpd 41, O-[(2,6-dichlorophenyl)methyl]-N-[[(3R)-2-(phenylsulfonyl)-2-azabicyclo[2.2.2]oct-3-yl]carbonyl]-L-tyrosine] |  |  |  | > 5 µM | > 10 µM |  |
| O=C(Nc1ccc(C[C@H](NC(=O)[C@@H]2C3CCC(CC3)N2S(=O)(=O)c2ccccc2)C(=O)O)cc1)c1c(Cl)cccc1Cl [Cpd 6a, 4-[(2,6-dichlorobenzoyl)amino]-N-[[(3S)-2-(phenylsulfonyl)-2-azabicyclo[2.2.2]oct-3-yl]carbonyl]-L-phenylalanine] | 0.023 µM | 0.021 µM | 0.217 µM |  |  |  |
| Cc1ccc(S(=O)(=O)N2C3CCC(CC3)C2C(=O)N[C@@H](Cc2ccc(NC(=O)c3c(C(C)C)cc(C(C)C)cc3C(C)C)cc2)C(=O)O)cc1 (stereo partly drawn) [Cpd 31, 4-[[2,4,6-tris(1-methylethyl)benzoyl]amino]-N-[[2-[(4-methylphenyl)sulfonyl]-2-azabicyclo[2.2.2]oct-3-yl]carbonyl]-L-phenylalanine] |  |  |  | > 5 µM | > 10 µM |  |
| O=C(Nc1ccc(C[C@H](NC(=O)[C@@H]2C3CCC(CC3)N2S(=O)(=O)c2cccs2)C(=O)O)cc1)c1c(Cl)cncc1Cl [Cpd 71a, 4-[[(3,5-dichloro-4-pyridinyl)carbonyl]amino]-N-[[(3S)-2-(2-thienylsulfonyl)-2-azabicyclo[2.2.2]oct-3-yl]carbonyl]-L-phenylalanine] | 0.006 µM | 0.36 µM | 0.033 µM |  |  |  |
| O=C(Nc1ccc(C[C@H](NC(=O)C2C3CCC(CC3)N2S(=O)(=O)c2ccc(F)cc2)C(=O)O)cc1)c1c(Cl)cccc1Cl (stereo partly drawn) [Cpd 54, 4-[(2,6-dichlorobenzoyl)amino]-N-[[2-[(4-fluorophenyl)sulfonyl]-2-azabicyclo[2.2.2]oct-3-yl]carbonyl]-L-phenylalanine] |  | 0.146 µM |  |  |  | 0.118 µM |
| O=C(Nc1ccc(C[C@H](NC(=O)C2C3CCC(CC3)N2S(=O)(=O)c2cccs2)C(=O)O)cc1)c1c(Cl)cccc1Cl (stereo partly drawn) [Cpd 66, 4-[(2,6-dichlorobenzoyl)amino]-N-[[2-(2-thienylsulfonyl)-2-azabicyclo[2.2.2]oct-3-yl]carbonyl]-L-phenylalanine] |  | 0.017 µM |  |  |  | 0.186 µM |
| COc1ccc(OC)c(C(=O)c2ccc(C(=O)Nc3ccc(C[C@H](NC(=O)C4C5CCC(CC5)N4S(=O)(=O)c4ccc(C)cc4)C(=O)O)cc3)cc2)c1 (stereo partly drawn) [Cpd 26, 4-[[4-(2,5-dimethoxybenzoyl)benzoyl]amino]-N-[[2-[(4-methylphenyl)sulfonyl]-2-azabicyclo[2.2.2]oct-3-yl]carbonyl]-L-phenylalanine] |  | 0.669 µM |  |  | > 10 µM |  |
| COc1cccc(OC)c1-c1ccc(C[C@H](NC(=O)[C@@H]2C3CCC(CC3)N2S(=O)(=O)c2ccccc2)C(=O)O)cc1 [Cpd 8, 4-(2,6-dimethoxyphenyl)-N-[[(3S)-2-(phenylsulfonyl)-2-azabicyclo[2.2.2]oct-3-yl]carbonyl]-L-phenylalanine] |  | 0.081 µM |  |  |  | 0.343 µM |
